Measured values published in patent publication US7186831B2, “5-halo-2-alkyl[1,2,4]triazolo[1,5-a]pyrimidin-7-amines” (priority 2001, dated 2007).

Assay: log P by HPLC
Assay type: physicochemical
Details: HPLC, gradient method, acetonitrile/0.1% aqueous phosphoric acid; EEC directive 79/831 Annex V. A8

**Q.** Which logP does the source give for CC(C)C(C)Nc1c(-c2ccccc2Cl)c(Cl)nc2nc(C3CC3)nn12 (centres unmarked) [compound 579] here?
**A.** 4.14

**Q.** Which logP does the source give for CC1C=CC(C)N1c1c(-c2ccccc2Cl)c(Cl)nc2nc(C3CC3)nn12 (centres unmarked) [compound 580] here?
**A.** 4.19

**Q.** Which logP does the source give for CC(C)C(C)Nc1c(-c2c(F)cc(F)cc2F)c(Cl)nc2nc(C3CC3)nn12 (centres unmarked) [compound 581] here?
**A.** 4.03

**Q.** With CC1C=CC(C)N1c1c(-c2c(F)cc(F)cc2F)c(Cl)nc2nc(C3CC3)nn12 (centres unmarked) [compound 582] as the compound, how does the logP read?
**A.** 4.17

**Q.** With CC(C)C(C)Nc1c(-c2c(F)cccc2Cl)c(Cl)nc2nc(C3CC3)nn12 (centres unmarked) [compound 583] as the compound, how does the logP read?
**A.** 4.12

**Q.** With CC1C=CC(C)N1c1c(-c2c(F)cccc2Cl)c(Cl)nc2nc(C3CC3)nn12 (centres unmarked) [compound 584] as the compound, how does the logP read?
**A.** 4.15

**Q.** Which logP does the source give for Cc1nc2nc(Cl)c(-c3c(F)cc(F)cc3F)c(N3OCCC3C)n2n1 (centres unmarked) [compound 585] here?
**A.** 2.93

**Q.** With Cc1nc2nc(Cl)c(-c3ccc(F)cc3Cl)c(NC(C)C(C)C)n2n1 (centres unmarked) [compound 588] as the compound, how does the logP read?
**A.** 3.6

**Q.** With Cc1nc2nc(Cl)c(-c3ccc(F)cc3Cl)c(N3CCCCO3)n2n1 [compound 589] as the compound, how does the logP read?
**A.** 3.23

**Q.** With C=CCN(CC)c1c(-c2ccc(F)cc2F)c(Cl)nc2nc(C3CC3)nn12 [compound 591] as the compound, how does the logP read?
**A.** 3.96

**Q.** For CCN(Cc1ccco1)c1c(-c2ccc(F)cc2F)c(Cl)nc2nc(C3CC3)nn12 [compound 592], which logP is on record?
**A.** 3.97

**Q.** For CCN(CC1CCCO1)c1c(-c2ccc(F)cc2F)c(Cl)nc2nc(C3CC3)nn12 (centres unmarked) [compound 593], which logP is on record?
**A.** 3.78

**Q.** Which logP does the source give for CCN(CCOC)c1c(-c2ccc(F)cc2F)c(Cl)nc2nc(C3CC3)nn12 [compound 594] here?
**A.** 3.46

**Q.** For CCOC(=O)CN(CC)c1c(-c2ccc(F)cc2F)c(Cl)nc2nc(C3CC3)nn12 [compound 595], which logP is on record?
**A.** 3.54

**Q.** With CCCCN(CC)c1c(-c2ccc(F)cc2F)c(Cl)nc2nc(C3CC3)nn12 [compound 596] as the compound, how does the logP read?
**A.** 4.52

**Q.** For CCN(CC)c1c(-c2ccc(F)cc2F)c(Cl)nc2nc(C3CC3)nn12 [compound 597], which logP is on record?
**A.** 3.73

**Q.** For CCCN(CC1CC1)c1c(-c2ccc(F)cc2F)c(Cl)nc2nc(C3CC3)nn12 [compound 598], which logP is on record?
**A.** 4.53

**Q.** With CCCN(CC1CCCCO1)c1c(-c2ccc(F)cc2F)c(Cl)nc2nc(C3CC3)nn12 (centres unmarked) [compound 599] as the compound, how does the logP read?
**A.** 4.71

**Q.** With CCCN(CC1CCCO1)c1c(-c2ccc(F)cc2F)c(Cl)nc2nc(C3CC3)nn12 (centres unmarked) [compound 600] as the compound, how does the logP read?
**A.** 4.22

**Q.** Which logP does the source give for CCCN(Cc1cccs1)c1c(-c2ccc(F)cc2F)c(Cl)nc2nc(C3CC3)nn12 [compound 601] here?
**A.** 4.64

**Q.** With CCCN(CCOC)c1c(-c2ccc(F)cc2F)c(Cl)nc2nc(C3CC3)nn12 [compound 602] as the compound, how does the logP read?
**A.** 3.84

**Q.** Which logP does the source give for OC1CCN(c2c(-c3ccc(F)cc3F)c(Cl)nc3nc(C4CC4)nn23)C1 (centres unmarked) [compound 603] here?
**A.** 2.2

**Q.** Which logP does the source give for CC1CCCN1c1c(-c2ccc(F)cc2F)c(Cl)nc2nc(C3CC3)nn12 (centres unmarked) [compound 604] here?
**A.** 3.76

**Q.** Which logP does the source give for CN(C)C1CCN(c2c(-c3ccc(F)cc3F)c(Cl)nc3nc(C4CC4)nn23)C1 (centres unmarked) [compound 605] here?
**A.** 1.46

**Q.** For Fc1ccc(-c2c(Cl)nc3nc(C4CC4)nn3c2N2CCCC2)c(F)c1 [compound 606], which logP is on record?
**A.** 3.36

**Q.** For OC1CCN(c2c(-c3ccc(F)cc3F)c(Cl)nc3nc(C4CC4)nn23)CC1 [compound 607], which logP is on record?
**A.** 2.29

**Q.** For Fc1ccc(-c2c(Cl)nc3nc(C4CC4)nn3c2N2CC=CCC2)c(F)c1 [compound 608], which logP is on record?
**A.** 3.72

**Q.** For Fc1ccc(-c2c(Cl)nc3nc(C4CC4)nn3c2N2CCC3(CC2)OCCO3)c(F)c1 [compound 609], which logP is on record?
**A.** 3.22

**Q.** Which logP does the source give for CC1CC(C)CN(c2c(-c3ccc(F)cc3F)c(Cl)nc3nc(C4CC4)nn23)C1 (centres unmarked) [compound 610] here?
**A.** 4.72

**Q.** Which logP does the source give for CC1CCCCN1c1c(-c2ccc(F)cc2F)c(Cl)nc2nc(C3CC3)nn12 (centres unmarked) [compound 611] here?
**A.** 4.3

**Q.** For CC1CCCN(c2c(-c3ccc(F)cc3F)c(Cl)nc3nc(C4CC4)nn23)C1 (centres unmarked) [compound 612], which logP is on record?
**A.** 4.37

**Q.** Which logP does the source give for CC1CCN(c2c(-c3ccc(F)cc3F)c(Cl)nc3nc(C4CC4)nn23)CC1 [compound 613] here?
**A.** 4.41
